In ChEMBL document CHEMBL5725871, “Indanylaminopyridylcyclopropanecarboxylic acids, pharmaceutical compositions and uses thereof” (2018):

Assays:
Cytochrome P450 2C9 = Cytochrome P450 2C9 (Homo sapiens, UniProt P11712); experiment: (§1) All assays are carried out on a robotic system in 96 well plates. The final incubation volume contains TRIS buffer (0.1 M), MgCl2 (5 mM), human liver microsomes (0.1 mg/mL), diclofenac (10 μM) and the test compound at five different concentrations or no compound (high control) in duplicate (e.g., highest concentration 10-50 μM with subsequent serial 1:4 dilutions). Following a short preincubation period, reactions are started with the cofactor (NADPH, 1 mM) and stopped by cooling the incubation down to 8° C. and subsequently by addition of one volume of acetonitrile. An internal standard solution the stable isotope 13C6-hydroxydiclofenac is added after quenching of incubations. Peak area analyte (=metabolite formed) and internal standard is determined by LC-MS/MS. The resulting peak area ratio analyte to internal standard in these incubations is compared to a control activity containing no test compound. Within each of the assay runs, the IC50 of a positive control inhibitor (sulfaphenazole) is determined.
Chain of Cytochrome P450 2C9 (P11712 whole entry): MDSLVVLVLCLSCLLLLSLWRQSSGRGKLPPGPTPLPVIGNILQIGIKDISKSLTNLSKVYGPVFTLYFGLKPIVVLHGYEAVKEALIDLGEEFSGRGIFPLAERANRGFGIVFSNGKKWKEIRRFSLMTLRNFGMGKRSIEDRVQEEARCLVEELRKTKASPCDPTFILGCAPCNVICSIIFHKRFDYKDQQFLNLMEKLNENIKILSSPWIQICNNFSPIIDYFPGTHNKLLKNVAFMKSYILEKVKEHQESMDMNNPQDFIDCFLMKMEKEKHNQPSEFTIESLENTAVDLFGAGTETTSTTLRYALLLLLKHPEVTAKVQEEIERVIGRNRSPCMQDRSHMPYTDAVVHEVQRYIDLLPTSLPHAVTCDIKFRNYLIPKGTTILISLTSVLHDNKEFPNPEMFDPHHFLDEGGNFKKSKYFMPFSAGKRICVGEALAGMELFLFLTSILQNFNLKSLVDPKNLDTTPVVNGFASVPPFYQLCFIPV

Cytochrome P450 2C8 = molecular target: T1, Cytochrome P450 2C8 (Homo sapiens, UniProt P10632); experiment: as §1, with “microsomes (0.05” for “microsomes (0.1”, “mg/mL), amodiaquine (1” for “mg/mL), diclofenac (10”, “duplicate (e.g.” for “duplicate (e.g.,”, “standard solution¿the” for “standard solution the”, “isotope d5-desethylamodiaquine” for “isotope 13C6-hydroxydiclofenac”, “inhibitor (Montelukast)” for “inhibitor (sulfaphenazole)”
T1 sequence (P10632 whole entry): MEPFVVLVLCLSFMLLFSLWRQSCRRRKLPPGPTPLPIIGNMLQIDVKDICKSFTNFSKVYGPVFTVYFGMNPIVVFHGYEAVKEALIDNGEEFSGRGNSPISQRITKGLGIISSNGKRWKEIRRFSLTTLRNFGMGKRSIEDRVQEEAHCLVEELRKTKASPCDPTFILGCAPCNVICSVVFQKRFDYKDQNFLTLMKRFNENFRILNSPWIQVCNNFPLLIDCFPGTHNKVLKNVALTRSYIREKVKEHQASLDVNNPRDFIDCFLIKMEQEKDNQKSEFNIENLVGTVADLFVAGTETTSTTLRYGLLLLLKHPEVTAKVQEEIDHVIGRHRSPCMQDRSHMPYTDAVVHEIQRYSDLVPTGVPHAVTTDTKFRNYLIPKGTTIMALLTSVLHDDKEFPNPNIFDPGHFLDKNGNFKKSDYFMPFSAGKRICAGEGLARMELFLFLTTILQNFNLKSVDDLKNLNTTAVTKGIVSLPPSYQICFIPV

Row | SMILES | IC50 (Cytochrome P450 2C9) | IC50 (Cytochrome P450 2C8)
1 | Cc1cc(C(=O)NCC(C)(C)O)cc(C)c1-c1ccc(F)c2c1CC[C@H]2Nc1ccc([C@H]2C[C@@H]2C(=O)O)nc1 | 31 µM | 10 µM
2 | Cc1c(C#N)cccc1-c1ccc(F)c2c1CC[C@H]2Nc1ccc([C@H]2C[C@@H]2C(=O)O)nc1 | 10 µM | 9 µM
3 | Cc1cccc(C)c1-c1ccc(F)c2c1CC[C@H]2Nc1ccc([C@H]2C[C@@H]2C(=O)O)nc1 | 7 µM | 5 µM
